Source: patent US5405849A, “Angiotensin II receptor blocking 2,3,6 substituted quinazolinones” (American Cyanamid Company, priority 1993, dated 1995)

Tested on: angiotensin II (AII) vasopressor response
Assay: AII challenge: antagonism of the vasopressor response of angiotensin II in conscious Okamoto-Aoki SHR
Assay type: in vivo, rat (Okamoto-Aoki SHR)
Settings: for inhibition in vivo at 1 mg/kg / inhibition in vivo at 2 mg/kg / inhibition in vivo at 3 mg/kg / inhibition in vivo at 5 mg/kg / inhibition in vivo at 30 mg/kg: Rattus norvegicus; for inhibition in vivo at 1 mg/kg / inhibition in vivo at 2 mg/kg / inhibition in vivo at 3 mg/kg / inhibition in vivo at 30 mg/kg: iv; for inhibition in vivo at 5 mg/kg: po; for inhibition in vivo at 30 mg/kg: 30 mg/kg iv
Text: Conscious Male Okamoto-Aoki SHR, 16-20 weeks old, weighing approximately 330 g are purchased from Charles River Labs (Wilmington, Mass.). Conscious rats are restrained in a supine position with elastic tape. The area at the base of the tail is locally anesthetized by subcutaneous infiltration with 2% procaine. The ventral caudal artery and vein are isolated, and a cannula made of polyethylene (PE) 10-20 tubing (fused together by heat) is passed into the lower abdominal aorta and vena cava, respectively. The cannula is secured, heparinized (1,000 I.U./ml), sealed and the wound is closed. The animals are placed in plastic restraining cages in an upright position. The cannula is attached to a Statham P23Db pressure transducer, and pulsatile blood pressure is recorded to 10-15 minutes with a Gould Brush recorder.
Angiotensin II (human sequence, Sigma Chem. Co., St. Louis, Mo.) of 0.05 and 0.1 ug/kg i.v. is injected into all rats (predosing response). Then a test compound, vehicle or a known angiotensin II antagonist is administered i.v., i.p. or orally to each set of rats. […] The vasopressor response of angiotensin II is measured for the increase in systolic blood pressure in mmHg. The percentage of antagonism or blockade of the vasopressor response of angiotensin II by a compound is calculated using the vasopressor response (increase in systolic blood pressure) of angiotensin II of each rat predosing the compound as 100%.

SMILES: CCCCc1nc2ccc(C(C)(C)OC)cc2c(=O)n1Cc1ccc(-c2ccccc2-c2nnn[nH]2)cc1 [Example 57, 2-Butyl-6-(1-methoxy-1-methylethyl)-3-[[2'-(1H-tetrazol-5-yl)[1,1'-biphenyl]-4-yl]methyl]-4(3H)-quinazolinone]
- Response change (systolic BP increase to AII) (1 mg/kg iv, AII .025 ug/kg, 15 min): 15 mmHg
- Response change (systolic BP increase to AII) (1 mg/kg iv, AII .025 ug/kg, 30 min): 15 mmHg
- Response change (systolic BP increase to AII) (1 mg/kg iv, AII .025 ug/kg, 60 min): 5 mmHg
- Response change (systolic BP increase to AII) (1 mg/kg iv, AII .05 ug/kg, 15 min): 5 mmHg
- Response change (systolic BP increase to AII) (1 mg/kg iv, AII .05 ug/kg, 30 min): 10 mmHg
- Response change (systolic BP increase to AII) (1 mg/kg iv, AII .05 ug/kg, 60 min): 15 mmHg
- Response change (systolic BP increase to AII) (1 mg/kg iv, AII .1 ug/kg, 15 min): 25 mmHg
- Response change (systolic BP increase to AII) (1 mg/kg iv, AII .1 ug/kg, 30 min): 35 mmHg
- Response change (systolic BP increase to AII) (1 mg/kg iv, AII .1 ug/kg, 60 min): 35 mmHg
- Response change (systolic BP increase to AII) (2 mg/kg iv, AII .025 ug/kg, 30 min): 0 mmHg
- Response change (systolic BP increase to AII) (2 mg/kg iv, AII .025 ug/kg, 120 min): 60 mmHg
- Response change (systolic BP increase to AII) (2 mg/kg iv, AII .025 ug/kg, 150 min): 0 mmHg
- Response change (systolic BP increase to AII) (2 mg/kg iv, AII .05 ug/kg, 30 min): 0 mmHg
- Response change (systolic BP increase to AII) (2 mg/kg iv, AII .05 ug/kg, 120 min): 30 mmHg
- Response change (systolic BP increase to AII) (2 mg/kg iv, AII .05 ug/kg, 150 min): 0 mmHg
- Response change (systolic BP increase to AII) (2 mg/kg iv, AII .1 ug/kg, 30 min): 0 mmHg
- Response change (systolic BP increase to AII) (2 mg/kg iv, AII .1 ug/kg, 120 min): 20 mmHg
- Response change (systolic BP increase to AII) (3 mg/kg iv, AII .025 ug/kg, 150 min): 15 mmHg
- Response change (systolic BP increase to AII) (3 mg/kg iv, AII .05 ug/kg, 150 min): 15 mmHg
- Response change (systolic BP increase to AII) (3 mg/kg iv, AII .1 ug/kg, 150 min): 25 mmHg
- Response change (systolic BP increase to AII) (5 mg/kg oral, AII .025 ug/kg, 240 min): 0 mmHg
- inhibition in vivo at 1 mg/kg (0.25 h, 1 mg/kg iv, AII .025 ug/kg, 15 min): 50%
- inhibition in vivo at 1 mg/kg (0.25 h, 1 mg/kg iv, AII .05 ug/kg, 15 min): 89%
- inhibition in vivo at 1 mg/kg (0.25 h, 1 mg/kg iv, AII .1 ug/kg, 15 min): 48%
- inhibition in vivo at 1 mg/kg (0.5 h, 1 mg/kg iv, AII .025 ug/kg, 30 min): 50%
- inhibition in vivo at 1 mg/kg (0.5 h, 1 mg/kg iv, AII .05 ug/kg, 30 min): 78%
- inhibition in vivo at 1 mg/kg (0.5 h, 1 mg/kg iv, AII .1 ug/kg, 30 min): 27%
- inhibition in vivo at 2 mg/kg (0.5 h, 2 mg/kg iv, AII .025 ug/kg, 30 min): 100%
- inhibition in vivo at 2 mg/kg (0.5 h, 2 mg/kg iv, AII .05 ug/kg, 30 min): 100%
- inhibition in vivo at 2 mg/kg (0.5 h, 2 mg/kg iv, AII .1 ug/kg, 30 min): 100%
- inhibition in vivo at 1 mg/kg (1 h, 1 mg/kg iv, AII .025 ug/kg, 60 min): 83%
- inhibition in vivo at 1 mg/kg (1 h, 1 mg/kg iv, AII .05 ug/kg, 60 min): 67%
- inhibition in vivo at 1 mg/kg (1 h, 1 mg/kg iv, AII .1 ug/kg, 60 min): 27%
- inhibition in vivo at 2 mg/kg (2 h, 2 mg/kg iv, AII .025 ug/kg, 120 min): 100%
- inhibition in vivo at 2 mg/kg (2 h, 2 mg/kg iv, AII .05 ug/kg, 120 min): 33%
- inhibition in vivo at 2 mg/kg (2 h, 2 mg/kg iv, AII .1 ug/kg, 120 min): 58%
- inhibition in vivo at 2 mg/kg (2.5 h, 2 mg/kg iv, AII .025 ug/kg, 150 min): 100%
- inhibition in vivo at 2 mg/kg (2.5 h, 2 mg/kg iv, AII .05 ug/kg, 150 min): 100%
- inhibition in vivo at 2 mg/kg (2.5 h, 2 mg/kg iv, AII .1 ug/kg, 150 min): 82%
- inhibition in vivo at 3 mg/kg (2.5 h, 3 mg/kg iv, AII .025 ug/kg, 150 min): 50%
- inhibition in vivo at 3 mg/kg (2.5 h, 3 mg/kg iv, AII .05 ug/kg, 150 min): 67%
- inhibition in vivo at 3 mg/kg (2.5 h, 3 mg/kg iv, AII .1 ug/kg, 150 min): 48%
- inhibition in vivo at 5 mg/kg (0.5 h, 5 mg/kg oral, AII .025 ug/kg, 30 min): 94%
- inhibition in vivo at 5 mg/kg (1 h, 5 mg/kg oral, AII .025 ug/kg, 60 min): 89%
- inhibition in vivo at 5 mg/kg (1.5 h, 5 mg/kg oral, AII .05 ug/kg, 90 min): 61%
- inhibition in vivo at 5 mg/kg (1.5 h, 5 mg/kg oral, AII .1 ug/kg, 90 min): 36%
- inhibition in vivo at 5 mg/kg (2 h, 5 mg/kg oral, AII .025 ug/kg, 120 min): 94%
- inhibition in vivo at 5 mg/kg (2 h, 5 mg/kg oral, AII .1 ug/kg, 120 min): 40%
- inhibition in vivo at 5 mg/kg (3 h, 5 mg/kg oral, AII .025 ug/kg, 180 min): 72%
- inhibition in vivo at 5 mg/kg (3 h, 5 mg/kg oral, AII .05 ug/kg, 180 min): 68%
- inhibition in vivo at 5 mg/kg (3 h, 5 mg/kg oral, AII .1 ug/kg, 180 min): 56%
- inhibition in vivo at 5 mg/kg (4 h, 5 mg/kg oral, AII .025 ug/kg, 240 min): 100%
- inhibition in vivo at 5 mg/kg (4 h, 5 mg/kg oral, AII .05 ug/kg, 240 min): 49%
- inhibition in vivo at 5 mg/kg (4 h, 5 mg/kg oral, AII .1 ug/kg, 240 min): 48%

SMILES: CCCCc1nc2ccc(C(C)OC(C)=O)cc2c(=O)n1Cc1ccc(-c2ccccc2-c2nnn[nH]2)cc1 (stereo not drawn) [Example 58, 6-[1-(Acetyloxy)ethyl]-2-butyl-3-[[2'-(1H-tetrazol-5-yl)[1,1'-biphenyl]-4-yl]methyl]-4(3H) -quinazolinone]
- inhibition in vivo at 30 mg/kg (0.5 h, AII .05 ug/kg, 30 min): 87%
- inhibition in vivo at 30 mg/kg (0.5 h, AII .1 ug/kg, 30 min): 98%
- inhibition in vivo at 30 mg/kg (1.5 h, AII .05 ug/kg, 90 min): 85%
- inhibition in vivo at 30 mg/kg (1.5 h, AII .1 ug/kg, 90 min): 95%
- inhibition in vivo at 30 mg/kg (2.5 h, AII .05 ug/kg, 150 min): 85%
- inhibition in vivo at 30 mg/kg (2.5 h, AII .1 ug/kg, 150 min): 81%
